Measured values published in ChEMBL document CHEMBL1201862, “PubChem BioAssay data set” (2004).
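48-hour exposure; five concentrations; linearly interpolated endpoints. At the GI50, growth is halved.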 The source made the active and inactive calls. Rule as the data show it: active = GI50 up to about 1.1 µM and inactive = higher.

Key:
Assay in all cases: growth of human tumour cells (NCI), 48 h
DMS-114 = tested on: DMS-114
DMS-273 = tested on: DMS-273
M19-MEL = tested on: M19-MEL
KM-20L2 = tested on: KM-20L2
LXFL 529 = tested on: LXFL 529
HOP-18 = tested on: HOP-18
DLD-1 = tested on: DLD-1
RXF 631 = tested on: RXF 631
SNB-78 = tested on: SNB-78

SMILES	GI50 (DMS-114)	GI50 (DMS-273)	GI50 (M19-MEL)	GI50 (KM-20L2)	GI50 (LXFL 529)	GI50 (HOP-18)	GI50 (DLD-1)	GI50 (RXF 631)	GI50 (SNB-78)
Cc1nc2ccccc2c(=O)n1/N=C(\N=N\c1cc(Cl)ccc1Cl)c1ccc(N(C)C)cc1	22.8 µM (inactive)	38.5 µM (inactive)	> 100 µM (inactive)	> 100 µM (inactive)	29.9 µM (inactive)	75.9 µM (inactive)	62.7 µM (inactive)		
CCOC(=O)C1=C(Nc2ccc(Cl)c(Cl)c2)OC/C1=N\NS(=O)(=O)c1ccc(C)cc1	56.4 µM (inactive)		94.6 µM (inactive)	31.4 µM (inactive)	46.9 µM (inactive)	27.5 µM (inactive)	39.8 µM (inactive)	29.6 µM (inactive)	> 100 µM (inactive)
O=C(CCCNC(=O)OCc1ccccc1)OCc1ccc2c(c1)C(=O)c1ccccc1C2=O	> 97.1 µM (inactive)			> 100 µM (inactive)	> 100 µM (inactive)		> 100 µM (inactive)	> 78.7 µM (inactive)	38.4 µM (inactive)
CCOC(=O)Cc1nc(/C(C#N)=C/c2ccco2)[nH]c(=O)c1C#N		> 100 µM (inactive)	> 100 µM (inactive)	> 100 µM (inactive)	> 100 µM (inactive)	> 100 µM (inactive)	> 100 µM (inactive)		37.8 µM (inactive)
Clc1ccc2c(Cl)ncnc2c1I	54.3 µM (inactive)	> 100 µM (inactive)	> 100 µM (inactive)	> 100 µM (inactive)	34 µM (inactive)		> 100 µM (inactive)		
Cc1ccc(C)c(NC(=O)C(=O)Nn2c(S)nc3ccccc3c2=O)c1	> 100 µM (inactive)	> 100 µM (inactive)		> 100 µM (inactive)	> 100 µM (inactive)	> 100 µM (inactive)	> 100 µM (inactive)	> 100 µM (inactive)	> 100 µM (inactive)
N/C(=N\O)N/N=C/c1ccc(O)c(O)c1	> 100 µM (inactive)	34.5 µM (inactive)	> 100 µM (inactive)	> 100 µM (inactive)	> 100 µM (inactive)	> 100 µM (inactive)	> 100 µM (inactive)	> 100 µM (inactive)	> 100 µM (inactive)
O=C1c2cccc([N+](=O)[O-])c2C(=O)c2nccnc21	0.982 µM (active)	3.5 µM (inactive)	0.122 µM (active)	2.7 µM (inactive)		1.69 µM (inactive)	2.84 µM (inactive)		3.09 µM (inactive)
CCOc1ccccc1/N=N/c1c(-c2ccccc2)nn(C(=O)CC(=O)Nc2cccc(Cl)c2)c1-c1ccccc1	15.9 µM (inactive)	22.5 µM (inactive)	76.6 µM (inactive)	68.2 µM (inactive)	39.5 µM (inactive)	> 100 µM (inactive)	20.4 µM (inactive)		59.3 µM (inactive)
CCCCCCCCCCCCCCCC/C(C(=O)OC)=C(/O)C(=O)OCC	> 100 µM (inactive)	> 100 µM (inactive)	> 100 µM (inactive)	> 100 µM (inactive)	> 100 µM (inactive)	> 100 µM (inactive)	> 100 µM (inactive)		> 100 µM (inactive)
O=C(O)c1ccc(C2C(=O)N[C@@H]3CCC[C@H]23)cc1 (some centres not stated)	> 100 µM (inactive)	> 100 µM (inactive)	> 100 µM (inactive)	> 100 µM (inactive)	> 100 µM (inactive)	> 100 µM (inactive)	> 100 µM (inactive)		> 100 µM (inactive)
